Source: US10448639B2, “Fungicidal pyrazoles” (FMC CORPORATION, priority 2009, dated 2019)
Read-outs that look alike come from different tables or passages of the source.

Tests used:
[1] = tested on: Puccinia recondita f. sp. tritici; experiment: Test I: wheat leaf rust, preventive spray on wheat seedlings, visual disease rating; conditions: for Test I rating (% disease control) / Test I disease control rating: wheat leaf rust, 100 = 100% disease control; for pest or weed control at 200 µg/mL: 192 h; for Test I disease control rating: sprayed the day before inoculation, 0 = no disease control relative to controls
Botrytis cinerea = experiment: Test B: tomato Botrytis, preventive spray on tomato seedlings, visual disease rating; conditions: for Test B rating (% disease control) / Test B disease control rating: tomato Botrytis, 100 = 100% disease control; for pest or weed control at 200 µg/mL: Botrytis cinerea, in Solanum lycopersicum, 120 h; for Test B disease control rating: 0 = no disease control relative to controls
Septoria tritici = experiment: Test G: wheat leaf blotch, preventive spray on wheat seedlings, visual disease rating; conditions: for Test G rating (% disease control) / Test G disease control rating: wheat leaf blotch, 100 = 100% disease control; for pest or weed control at 200 µg/mL: Zymoseptoria tritici, in Triticum aestivum, 504 h; for Test G disease control rating: sprayed the day before inoculation, 0 = no disease control relative to controls
Alternaria solani = experiment: Test C: tomato early blight, preventive spray on tomato seedlings, visual disease rating; conditions: for Test C rating (% disease control) / Test C disease control rating: tomato early blight, 100 = 100% disease control; for pest or weed control at 200 µg/mL: Alternaria solani, in Solanum lycopersicum, 168 h; for Test C disease control rating: 0 = no disease control relative to controls
Source text: General protocol for preparing test suspensions for Tests A-J: the test compounds were first dissolved in acetone in an amount equal to 3% of the final volume and then suspended at the desired concentration (in ppm) in acetone and purified water (50/50 mix by volume) containing 250 ppm of the surfactant Trem® 014 (polyhydric alcohol esters). The resulting test suspensions were then used in Tests A-J. Spraying a 200 ppm test suspension to the point of run-off on the test plants was the equivalent of a rate of 500 g/ha. Unless otherwise indicated, the rating values indicate a 200 ppm test suspension was used. (An asterisk “*” next to the rating value indicates a 40 ppm test suspension was used.)
The test suspension was sprayed to the point of run-off on tomato seedlings. The following day the seedlings were inoculated with a spore suspension of Alternaria solani (the causal agent of tomato early blight) and incubated in a saturated atmosphere at 27° C. for 48 h, and then moved to a growth chamber at 20° C. for 5 days, after which time visual disease ratings were made.

[2] = tested on: Erysiphe graminis f sp. tritici; experiment: Test J: wheat powdery mildew, preventive spray on wheat seedlings, visual disease rating; conditions: for Test J rating (% disease control) / Test J disease control rating: wheat powdery mildew, 100 = 100% disease control; for pest or weed control at 200 µg/mL: Blumeria graminis, in Triticum aestivum, 192 h; for Test J disease control rating: sprayed the day before inoculation, 0 = no disease control relative to controls
Septoria nodorum = experiment: Test F: Septoria glume blotch, preventive spray on wheat seedlings, visual disease rating; conditions: for Test F rating (% disease control) / Test F disease control rating: 100 = 100% disease control; for pest or weed control at 200 µg/mL: Parastagonospora nodorum, in Triticum aestivum, 192 h; for Test F disease control rating: 0 = no disease control relative to controls
[3] = tested on: Puccinia recondita f. sp. tritici; experiment: Test H: wheat leaf rust, curative spray on inoculated wheat seedlings, visual disease rating; conditions: for Test H rating (% disease control) / Test H disease control rating: wheat leaf rust, 100 = 100% disease control; for pest or weed control at 200 µg/mL: 144 h; for Test H disease control rating: sprayed after inoculation, 0 = no disease control relative to controls
[4] = preventive, 0 = no control relative to controls
[5] = 0 = no control relative to controls
[6] = Septoria glume blotch, 0 = no control relative to controls
[7] = curative, 0 = no control relative to controls
[8] = preventive spray, 0 = no control
[9] = Septoria glume blotch on wheat, preventive spray, 0 = no control

## COc1ccc(-c2c(C)nn(C)c2Nc2c(F)ccc(F)c2F)c(Cl)c1 [compound 174]
[1]; [4]
  Test I rating (% disease control): 97%
Botrytis cinerea; [5]
  Test B rating (% disease control): 100%
Septoria tritici; [5]
  Test G rating (% disease control): 96%
Alternaria solani; [5]
  Test C rating (% disease control): 99%
[2]; [5]
  Test J rating (% disease control): 99%
Septoria nodorum; [6]
  Test F rating (% disease control): 0%
[3]; [7]
  Test H rating (% disease control): 0%

## COc1cc(F)c(-c2c(C)nn(C)c2Nc2c(Cl)cc(OC)cc2OC)c(F)c1 [compound 59]
[1]; [8]
  Test I rating (% disease control): 68%
Botrytis cinerea; [8]
  Test B rating (% disease control): 94%
Septoria tritici; [8]
  Test G rating (% disease control): 88%
Alternaria solani; [8]
  Test C rating (% disease control): 0%
[2]; [8]
  Test J rating (% disease control): 0%
Septoria nodorum; [9]
  Test F rating (% disease control): 0%
[3]; curative spray, 0 = no control
  Test H rating (% disease control): 0%

## Cc1nn(C)c(Oc2ccc(Cl)cn2)c1-c1c(F)cc(F)cc1F [compound 39]
[1]; [8]
  Test I rating (% disease control): 99%
Botrytis cinerea; [8]
  Test B rating (% disease control): 100%
Septoria tritici; [8]
  Test G rating (% disease control): 99%
Alternaria solani; [8]
  Test C rating (% disease control): 99%
[2]; [8]
  Test J rating (% disease control): 99%
Septoria nodorum; [9]
  Test F rating (% disease control): 0%
[3]; curative spray, 0 = no control
  Test H rating (% disease control): 99%

## COc1ccc(F)c(Nc2c(-c3ccc(F)cc3F)c(C)nn2C)c1 [compound 244]
[1]; [4]
  Test I rating (% disease control): 0%
Botrytis cinerea; [5]
  Test B rating (% disease control): 82%
Septoria tritici; [5]
  Test G rating (% disease control): 91%
Alternaria solani; [5]
  Test C rating (% disease control): 0%
[2]; [5]
  Test J rating (% disease control): 96%
Septoria nodorum; [6]
  Test F rating (% disease control): 0%
[3]; [7]
  Test H rating (% disease control): 0%

## Cc1nn(C)c(Nc2ccc(F)cc2Cl)c1-c1c(F)cccc1Cl [Compound 193, N-(2-chloro-4-fluorophenyl)-4-(2-chloro-6-fluorophenyl)-1,3-dimethyl-1H-pyrazol-5-amine]
[1]; read-out: Test I rating (% disease control)
  pest or weed control at 200 µg/mL: 99%
Botrytis cinerea; read-out: Test B rating (% disease control)
  pest or weed control at 200 µg/mL: 99%
Septoria tritici; read-out: Test G rating (% disease control)
  pest or weed control at 200 µg/mL: 100%
Alternaria solani; read-out: Test C rating (% disease control)
  pest or weed control at 200 µg/mL: 100%
[2]; read-out: Test J rating (% disease control)
  pest or weed control at 200 µg/mL: 100%
Septoria nodorum; read-out: Test F rating (% disease control)
  pest or weed control at 200 µg/mL: 0%
[3]; read-out: Test H rating (% disease control)
  pest or weed control at 200 µg/mL: 32%

## COc1cccc(Nc2c(-c3c(F)cccc3F)c(C)nn2C)c1 [compound 200]
[1]; [4]
  Test I rating (% disease control): 0%
Botrytis cinerea; [5]
  Test B rating (% disease control): 82%
Septoria tritici; [5]
  Test G rating (% disease control): 97%
Alternaria solani; [5]
  Test C rating (% disease control): 0%
[2]; [5]
  Test J rating (% disease control): 94%
Septoria nodorum; [6]
  Test F rating (% disease control): 0%
[3]; [7]
  Test H rating (% disease control): 0%

## Cc1nn(C)c(Nc2cc(F)ccc2F)c1-c1c(F)cc(C#N)cc1F [compound 137]
[1]; [8]
  Test I rating (% disease control): 100%
Botrytis cinerea; [8]
  Test B rating (% disease control): 96%
Septoria tritici; [8]
  Test G rating (% disease control): 99%
Alternaria solani; [8]
  Test C rating (% disease control): 97%
[2]; [8]
  Test J rating (% disease control): 100%
Septoria nodorum; [9]
  Test F rating (% disease control): 78%
[3]; curative spray, 0 = no control
  Test H rating (% disease control): 8%

## COc1cc(F)c(Nc2c(-c3c(F)cc(C#N)cc3F)c(C)nn2C)c(F)c1 [compound 134]
[1]; [8]
  Test I rating (% disease control): 41%
Botrytis cinerea; [8]
  Test B rating (% disease control): 99%
Septoria tritici; [8]
  Test G rating (% disease control): 99%
Alternaria solani; [8]
  Test C rating (% disease control): 0%
[2]; [8]
  Test J rating (% disease control): 0%
Septoria nodorum; [9]
  Test F rating (% disease control): 0%
[3]; curative spray, 0 = no control
  Test H rating (% disease control): 0%

## COc1ccc(Cl)c(Nc2c(-c3c(F)cccc3F)c(C)nn2C)c1 [compound 215]
[1]; [4]
  Test I rating (% disease control): 94%
Botrytis cinerea; [5]
  Test B rating (% disease control): 89%
Septoria tritici; [5]
  Test G rating (% disease control): 98%
Alternaria solani; [5]
  Test C rating (% disease control): 0%
[2]; [5]
  Test J rating (% disease control): 99%
Septoria nodorum; [6]
  Test F rating (% disease control): 0%
[3]; [7]
  Test H rating (% disease control): 0%

## Cc1nn(C)c(Nc2c(F)cc(Cl)cc2F)c1-c1ccc(F)cc1F [Compound 357, N-(4-chloro-2,6-difluorophenyl)-4-(2,4-difluorophenyl)-1,3-dimethyl-1H-pyrazol-5-amine]
[1]; read-out: Test I disease control rating
  pest or weed control at 200 µg/mL: 99%
Botrytis cinerea; read-out: Test B disease control rating
  pest or weed control at 200 µg/mL: 100%
Septoria tritici; read-out: Test G disease control rating
  pest or weed control at 200 µg/mL: 100%
Alternaria solani; read-out: Test C disease control rating
  pest or weed control at 200 µg/mL: 86%
[2]; read-out: Test J disease control rating
  pest or weed control at 200 µg/mL: 100%
Septoria nodorum; read-out: Test F disease control rating
  pest or weed control at 200 µg/mL: 87%
[3]; read-out: Test H disease control rating
  pest or weed control at 200 µg/mL: 0%

## Cc1nn(C)c(Nc2ccc(F)cc2Cl)c1-c1c(F)cccc1C(F)(F)F [compound 253]
[1]; [4]
  Test I rating (% disease control): 0%
Botrytis cinerea; [5]
  Test B rating (% disease control): 99%
Septoria tritici; [5]
  Test G rating (% disease control): 0%
Alternaria solani; [5]
  Test C rating (% disease control): 0%
[2]; [5]
  Test J rating (% disease control): 76%
Septoria nodorum; [6]
  Test F rating (% disease control): 0%
[3]; [7]
  Test H rating (% disease control): 0%

## COc1ccc(Nc2c(-c3ccc(Cl)cc3)c(C)nn2C)c(Cl)c1 [compound 60]
[1]; [8]
  Test I rating (% disease control): 79%
Botrytis cinerea; [8]
  Test B rating (% disease control): 75%
Septoria tritici; [8]
  Test G rating (% disease control): 97%
Alternaria solani; [8]
  Test C rating (% disease control): 0%
[2]; [8]
  Test J rating (% disease control): 0%
Septoria nodorum; [9]
  Test F rating (% disease control): 0%
[3]; curative spray, 0 = no control
  Test H rating (% disease control): 59%

## Cc1nn(C)c(Oc2ncc(F)cc2F)c1-c1ccc(F)cc1Cl [compound 189]
[1]; [4]
  Test I rating (% disease control): 99%
Botrytis cinerea; [5]
  Test B rating (% disease control): 99%
Septoria tritici; [5]
  Test G rating (% disease control): 100%
Alternaria solani; [5]
  Test C rating (% disease control): 100%
[2]; [5]
  Test J rating (% disease control): 98%
Septoria nodorum; [6]
  Test F rating (% disease control): 80%
[3]; [7]
  Test H rating (% disease control): 99%

## Cc1nn(C)c(Nc2ccc([N+](=O)[O-])cc2F)c1-c1ccc(F)cc1Cl [compound 344]
[1]
  Test I disease control rating: 100%
Botrytis cinerea
  Test B disease control rating: 100%
Septoria tritici
  Test G disease control rating: 100%
Alternaria solani
  Test C disease control rating: 40%
[2]
  Test J disease control rating: 100%
Septoria nodorum; Septoria glume blotch on wheat
  Test F disease control rating: 87%
[3]
  Test H disease control rating: 62%

## Cc1nn(C)c(Oc2c(F)cc([N+](=O)[O-])cc2F)c1-c1ccc(F)cc1Cl [compound 121]
[1]; [8]
  Test I rating (% disease control): 100%
Botrytis cinerea; [8]
  Test B rating (% disease control): 100%
Septoria tritici; [8]
  Test G rating (% disease control): 99%
Alternaria solani; [8]
  Test C rating (% disease control): 86%
[2]; [8]
  Test J rating (% disease control): 97%
Septoria nodorum; [9]
  Test F rating (% disease control): 82%
[3]; curative spray, 0 = no control
  Test H rating (% disease control): 83%

## Cc1ccc(-c2c(C)nn(C)c2Nc2c(F)cc(F)cc2F)cc1 [compound 79]
[1]; [8]
  Test I rating (% disease control): 55%
Botrytis cinerea; [8]
  Test B rating (% disease control): 99%
Septoria tritici; [8]
  Test G rating (% disease control): 99%
Alternaria solani; [8]
  Test C rating (% disease control): 0%
[2]; [8]
  Test J rating (% disease control): 0%
Septoria nodorum; [9]
  Test F rating (% disease control): 0%
[3]; curative spray, 0 = no control
  Test H rating (% disease control): 0%

## Cc1nn(C)c(Nc2ccc(F)cc2Cl)c1-c1ccc(F)cc1Br [compound 314]
[1]
  Test I disease control rating: 100%
Botrytis cinerea
  Test B disease control rating: 100%
Septoria tritici
  Test G disease control rating: 100%
Alternaria solani
  Test C disease control rating: 95%
[2]
  Test J disease control rating: 100%
Septoria nodorum; Septoria glume blotch on wheat
  Test F disease control rating: 0%
[3]
  Test H disease control rating: 94%

## Cc1nn(C)c(Nc2c(F)cccc2F)c1-c1ccc(Cl)cc1 [compound 33]
[1]; [8]
  Test I rating (% disease control): 18%
Botrytis cinerea; [8]
  Test B rating (% disease control): 0%
Septoria tritici; [8]
  Test G rating (% disease control): 95%
Alternaria solani; [8]
  Test C rating (% disease control): 0%
[2]; [8]
  Test J rating (% disease control): 0%
Septoria nodorum; [9]
  Test F rating (% disease control): 0%
[3]; curative spray, 0 = no control
  Test H rating (% disease control): 0%

## COc1cccc(Oc2c(-c3c(F)cc(OC)cc3F)c(C)nn2C)c1 [compound 221]
[1]; [4]
  Test I rating (% disease control): 99%
Botrytis cinerea; [5]
  Test B rating (% disease control): 98%
Septoria tritici; [5]
  Test G rating (% disease control): 100%
Alternaria solani; [5]
  Test C rating (% disease control): 94%
[2]; [5]
  Test J rating (% disease control): 100%
Septoria nodorum; [6]
  Test F rating (% disease control): 82%
[3]; [7]
  Test H rating (% disease control): 17%

## CC(=O)Nc1ccc(Oc2c(-c3ccc(F)cc3Cl)c(C)nn2C)c(F)c1 [compound 71]
[1]; [8]
  Test I rating (% disease control): 91%
Botrytis cinerea; [8]
  Test B rating (% disease control): 93%
Septoria tritici; [8]
  Test G rating (% disease control): 96%
Alternaria solani; [8]
  Test C rating (% disease control): 0%
[2]; [8]
  Test J rating (% disease control): 67%
Septoria nodorum; [9]
  Test F rating (% disease control): 0%
[3]; curative spray, 0 = no control
  Test H rating (% disease control): 0%
